Source: US20130287688A1, “NOVEL COMPOSITIONS AND USES OF ANTI-HYPERTENSION AGENTS FOR CANCER THERAPY” (XTUIT PHARMACEUTICALS, INC., priority 2010, published 2013)
Several values for one entry are separate records, joined by “and”; a condition that tells them apart may be missing. Equal entries are not always repeated.

Experiments:
[1] = system: E0771 breast tumors; test: Breast tumor growth and survival studies; type: in vivo, mice
Method: (§1) Breast tumor growth and survival studies: Mice bearing orthotopic E0771 or 4T1 breast tumors were split into treatment groups, time-matched for time after implantation and size-matched for tumor volume at this time (110-111 mm^3 in E0771, in 4T1). […] The primary tumors were then measured every 2 days, beginning on day 0, using calipers. Tumor growth was quantified using the time for each to reach double its initial volume Animal survival was quantified based on time of death after initiation of treatment or time to reach excessive tumor burden (>1000 mm^3).

[2] = system: 4T1 breast tumors; test: Breast tumor growth and survival studies; type: in vivo, mice
From the text: In FIG. 35B, the quantification of tumor growth rates, based on the time to reach double the initial volume, is shown.
In FIG. 35C, the animal survival following the initiation of treatment is shown. […] Statistical tests were corrected for multiple comparisons using the Holm-Bonferroni method.
as §1

[3] = system: HSTS26T tumors; test: Distribution of intratumorally injected 100 nm nanoparticles; type: in vivo, mice; settings: 100 nm diameter nanoparticles
From the text: (§2) Based on the previous studies on the tumor interstitial matrix (Pluen A, et al. (2001) Proc Natl Acad Sci USA 98:4628-4633 and Brown E, et al. (2003) Nat Med 9:796-800), the inventors then sought to determine if a decrease in collagen content by Losartan can improve the intratumoral distribution of nanoparticles. The inventors therefore measured the intratumoral distribution of fluorescent polystyrene nanoparticles (100 nm diameter) in three different tumor types—HSTS26T, Mu89, and L3.6 pl—after an i.t. or i.v. injection. In mice injected i.t. with nanoparticles, losartan improved nanoparticle accumulation and penetration in the tumor center (FIG. 8A; HSTS26T p<0.001, Mu89 p<0.001). Conversely, there was little or no nanoparticle accumulation in the center of control tumors. Most of the injected nanoparticles in control tumors were found in the tumor margin and around the needle insertion point (FIG. 8A). The inventors also determined the effects of losartan on the intratumoral distribution of oncolytic HSV.
(§3) Nanoparticles and oncolytic HSV were infused with a syringe pump (Harvard Apparatus Standard Pump 22, Holliston, Mass.) at a flow rate of 4 μl/min. The inventors injected 10 μl of HSV (2.5×10^5 t.u.) expressing the green fluorescent protein (GFP), or 10 μl of fluorescent nanoparticles (diameter of […]; concentration of 1×10^13 nanoparticles/ml). […]

[4] = system: Mu89 tumors; test: as above; type: in vivo, mice; settings: 100 nm diameter nanoparticles
From the text: as §2, §3

[5] = system: HSTS26T tumors; test: Intratumoral spread of i.t. injected oncolytic HSV (GFP); type: in vivo, mice; settings: 24 hrs after i.t. injection of HSV expressing GFP
From the text: as §2, §3

[6] = system: Mu89 tumors; test: as above; type: in vivo, mice; settings: 24 hrs after i.t. injection of HSV expressing GFP
From the text: as §2, §3

[7] = system: HSTS26T tumors; test: Collagen I immunostaining of tumor sections; type: in vivo, SCID mice
Method: (§4) Human soft tissue sarcoma (HSTS26T) and human melanoma (Mu89) tumors were grown subcutaneously in the legs and dorsal skin fold chamber of severe combined immunodeficient (SCID) mice (Leunig M, et al. (1992) Cancer Res 52:6553-6560). Human pancreatic adenocarcinoma cells (L3.6PL) were grown orthotopically in the pancreas of SCID mice. L3.6PL tumors were induced with a sub-capsular injection of one million cells in the tail of the pancreas. Tumor sizes were monitored in spontaneous FVB/N-Tg (MMTV-PyVT) 634MU1/J mice and tumors selected for treatment when they reached a size of 4 to 6 mm in diameter (Guy C T et al. (1992) Mol Cell Biol 12:954-961).
(§5) Cozaar (losartan potassium) tablets were ground using a mortar and pestle. The powder was then dissolved in water to obtain a concentration of 2.5 mg/ml. The solution was then filtered and stored in a sterile container.
(§6) Frozen sections were cut into 10 μm sections for immunohistochemistry and imaging. Collagen I was detected using the LF-67 antibody (1:100 dilution) with a previously described protocol (Znati C A, et al. (2003) Clin Cancer Res 9:5508-5513). TSP-1 was detected with a goat anti-human antibody (1:50 dilution), which cross-reacts with mice (sc-12312, Santa Cruz Biotechnology Inc., Santa Cruz, Calif.). For collagen and TSP-1 analysis, images at 20× magnification were taken randomly from each slide. The collagen and TSP-1 content was determined by measuring the number of pixels above a threshold value that was set based on the average intensity value of pixels from all slides under analysis. The background-signal intensity for both collagen I and thrombospondin-1 immunostaining was low and uniform.

[8] = system: Mu89 tumors; test: Collagen I immunostaining of tumor sections; type: in vivo, SCID mice; settings: 20 mg/kg/day, two weeks (FIG. 5D)
Method: as §4, §5, §6

[9] = system: L3.6 pl orthotopic pancreatic tumors; test: Collagen I immunostaining of tumor sections; type: in vivo, SCID mice; settings: 20 mg/kg/day, two weeks (FIG. 5B)
Method: as §4, §5, §6

[10] = agent given alone (losartan 40 mg/kg daily or doxorubicin 2 mg/kg every three days)
[11] = losartan in combination with doxorubicin

SMILES: CCCCc1nc(Cl)c(CO)n1Cc1ccc(-c2ccccc2-c2nn[nH]n2)cc1 [losartan]
- tumor growth rate [1, 10]: no significant effect
- median survival ([1]; combination of losartan and doxorubicin, saline alone 12 days): 23.5 days
- survival ([1]; losartan alone): did not shorten survival
- tumor growth [1, 11]: significantly delayed
- tumor growth rate [2, 10]: no significant effect
- survival ([2]; combination of losartan and doxorubicin): improved survival
- tumor growth [2, 11]: significantly delayed
- survival ([2]; monotherapy): did not shorten survival
- increase in distribution of i.t.-injected nanoparticles [3]: 1.5 fold
- increase in distribution of i.t.-injected nanoparticles [4]: 4 fold
- virus spread [5]: significantly increased
- virus spread [6]: significantly increased
- reduction in collagen I immunostaining ([7]; 20 mg/kg/day, dose response (FIG. 3), vs saline): 42%
- reduction in collagen I immunostaining ([7]; 20 mg/kg/day, two weeks (FIG. 5D)): 44%
- reduction in collagen I immunostaining ([7]; 60 mg/kg/day, dose response (FIG. 3), vs saline): 63% and 65%
- reduction in collagen I immunostaining [8]: 20%
- reduction in collagen I immunostaining [9]: 50%
